US9481648B2, “Kinase inhibitors” (Respivert Limited, priority 2013, dated 2016)
Read-outs that look alike come from different tables or passages of the source.

Legend:
[1] = test system: endotoxin (LPS)-induced uveitis in Lewis rats; assay: Endotoxin-induced uveitis in rats (in vivo vi); parameters: species or system rat; conditions: for Cell counts / IL-1β Anterior tissue / IL-1β Posterior tissue: Table 7c; for cytokine levels in both the anterior and posterior segments of the eyes: rats treated with intravitreal endotoxin LPS, topical dosing
Protocol: Male, Lewis rats (6-8 weeks old, Charles River UK Limited) are housed in cages of 3 at 19-21° C. with a 12 h light/dark cycle (07:00/19:00) and fed a standard diet of rodent chow and water ad libitum. Non-fasted rats are weighed, individually identified on the tail with a permanent marker, and receive a single intravitreal administration into the right vitreous humor (5 μL dose volume) of 100 ng/animal of LPS (Escherichia coli 0111:B4 prepared in PBS, Sigma Aldrich, UK) using a 32-gauge needle. Untreated rats are injected with PBS. […] Following euthanasia, the right eye of each animal is enucleated and dissected into front (anterior) and back (posterior) sections around the lens. Each section is weighed and homogenised in 500 μL of sterile phosphate buffered saline followed by 20 minutes centrifugation at 12000 rpm at 4° C.

GSK 3α = GSK 3α (Homo sapiens (Human), UniProt P49840); assay: GSK 3α enzyme inhibition (FRET, Z-LYTE; Method 2); format: biochemical; conditions: read-out: IC50 Values for Enzyme Inhibition GSK3α
Sequence of GSK 3α (P49840 whole entry): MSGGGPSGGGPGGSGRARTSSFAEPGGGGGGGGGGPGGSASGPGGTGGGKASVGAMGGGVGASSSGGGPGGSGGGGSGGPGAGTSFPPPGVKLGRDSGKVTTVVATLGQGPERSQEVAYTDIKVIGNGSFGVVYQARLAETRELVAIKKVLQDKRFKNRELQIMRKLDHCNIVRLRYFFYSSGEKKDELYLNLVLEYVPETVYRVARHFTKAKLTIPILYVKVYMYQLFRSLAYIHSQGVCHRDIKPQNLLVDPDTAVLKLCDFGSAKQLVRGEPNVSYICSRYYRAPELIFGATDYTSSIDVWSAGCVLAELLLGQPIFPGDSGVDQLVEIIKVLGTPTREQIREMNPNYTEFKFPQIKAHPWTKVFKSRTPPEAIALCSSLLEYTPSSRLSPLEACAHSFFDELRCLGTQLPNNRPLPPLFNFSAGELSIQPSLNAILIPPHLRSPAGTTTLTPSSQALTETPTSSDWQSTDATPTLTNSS
Method in brief: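 Phosphorylation was taken from the donor (coumarin) to acceptor (fluorescein) emission ratio after 1 h protease development, which cleaves only unphosphorylated peptide. Before that, peptide (8 μM stock) plus ATP (40 μM stock) reacted 1 h. This followed a 105 min RT preincubation of GSK3-α with compound stocks of 10–0.01 μg/mL.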

[2] = test system: TNBS-induced colitis in BDF1 mice; assay: TNBS-induced colitis in mice (in vivo iv); parameters: species or system mouse; conditions: for inflammatory cell infiltrate in the reticular and laminar propria zones / ulcer grade and epithelial repair compared to the vehicle control: 5 mg/kg orally, 2 days; for inflammatory cell infiltrate in the reticular and laminar propria zones / ulcer grade and epithelial repair compared to the vehicle control / activity in in vivo model of colonic inflammation (histopathology analysis): TNBS-induced colitis, mice; for LP inflammation / Ulcer grade: TNBS-induced colitis in mice, 5 mg/kg oral; for activity in in vivo model of colonic inflammation (histopathology analysis): conducted over 2 days
Protocol: Non-fasted, 10-12 week old, male BDF1 mice are dosed by oral gavage twice daily with either vehicle (5 mL/kg), reference item (Budesonide 2.5 mg/kg) or test compound (1 or 5 mg/kg) one day before (Day −1) stimulation of the inflammatory response by treatment with 2,4,6-trinitrobenzenesulphonic acid (TNBS) (15 mg/mL in 50% ethanol/50% saline). On Day 0 of the study TNBS (200 μL) is administered intra-colonically via a plastic catheter with BID dosing of the vehicle, reference or test compound continuing for 2 or 4 days. During the study, animals are weighed every day and stool observations are made and recorded as a score, based on stool consistency. At the time of sacrifice on Day 2 (or Day 4), the large intestine is removed and the length and weight recorded. Sections of the colon are taken for histopathology scoring to determine disease severity.

Syk = Syk (Homo sapiens (Human), UniProt P43405); assay: Syk enzyme inhibition (FRET, Z-LYTE); format: biochemical
Method in brief: (§1)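 Syk or c-Src enzyme (3000 or 2000 ng/mL solutions) was preincubated 2 h at RT with compound solutions at 1, 0.1, 0.01 or 0.001 µg/mL. Z-LYTE FRET peptide (8 µM solution) and ATP (800 µM solution for c-Src, 60 µM for Syk) were then added for 1 h, followed by protease development for 1 h. Phosphorylation was read as the coumarin/fluorescein emission ratio.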

[3] = test system: β-catenin in d-U937 cells; assay: Accumulation of β catenin in d-U937 cells (assay m); format: cell-based, human
Method in brief: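 U937 cells were differentiated with PMA (100 ng/mL) for 48–72 hr, then treated with compound or vehicle for 18 hr. After formaldehyde fixation, β-catenin was detected with a primary antibody and an HRP secondary using TMB (OD450–655). Signal was normalised to crystal violet cell staining (OD595).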

p38 MAPKα (MAPK14) = p38 MAPKα (MAPK14) (Homo sapiens (Human), UniProt Q16539); assay: p38 MAPKα enzyme inhibition (FRET, Z-LYTE; Method 2); format: biochemical
Sequence of p38 MAPKα (MAPK14) (Q16539 whole entry): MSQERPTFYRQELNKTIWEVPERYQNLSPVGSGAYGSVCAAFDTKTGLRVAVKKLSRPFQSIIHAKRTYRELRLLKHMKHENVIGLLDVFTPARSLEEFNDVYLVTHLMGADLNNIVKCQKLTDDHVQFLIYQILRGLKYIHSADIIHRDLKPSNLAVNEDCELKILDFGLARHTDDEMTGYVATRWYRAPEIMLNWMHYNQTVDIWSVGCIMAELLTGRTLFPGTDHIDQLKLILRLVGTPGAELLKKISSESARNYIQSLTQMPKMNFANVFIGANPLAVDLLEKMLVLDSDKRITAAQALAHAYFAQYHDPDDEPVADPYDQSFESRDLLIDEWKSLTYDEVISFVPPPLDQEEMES

c-Src = c-Src (Homo sapiens (Human), UniProt P12931); assay: c-Src enzyme inhibition (FRET, Z-LYTE); format: biochemical
Sequence of c-Src (P12931 whole entry, looked up): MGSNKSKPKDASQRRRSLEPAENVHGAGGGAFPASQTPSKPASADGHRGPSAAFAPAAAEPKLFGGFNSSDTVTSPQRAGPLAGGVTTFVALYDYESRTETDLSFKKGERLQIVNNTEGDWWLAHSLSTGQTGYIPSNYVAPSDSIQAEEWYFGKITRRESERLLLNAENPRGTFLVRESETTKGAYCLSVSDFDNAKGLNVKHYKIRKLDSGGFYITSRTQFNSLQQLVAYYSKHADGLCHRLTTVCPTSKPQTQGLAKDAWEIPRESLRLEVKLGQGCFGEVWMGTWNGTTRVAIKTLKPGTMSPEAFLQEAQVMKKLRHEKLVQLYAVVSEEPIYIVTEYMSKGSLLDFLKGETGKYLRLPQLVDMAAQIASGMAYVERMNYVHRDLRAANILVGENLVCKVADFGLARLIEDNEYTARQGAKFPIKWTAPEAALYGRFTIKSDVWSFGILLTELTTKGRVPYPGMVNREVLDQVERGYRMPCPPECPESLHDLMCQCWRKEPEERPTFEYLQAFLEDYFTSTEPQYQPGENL
Method in brief: as §1

CYP3A4 = CYP3A4 (Homo sapiens (Human), UniProt P08684); assay: CYP3A4 inhibition study; format: in vitro ADME; conditions: for inhibition at 15 µM: human, read-out: 15 μM % Inh
Sequence of CYP3A4 (P08684 whole entry): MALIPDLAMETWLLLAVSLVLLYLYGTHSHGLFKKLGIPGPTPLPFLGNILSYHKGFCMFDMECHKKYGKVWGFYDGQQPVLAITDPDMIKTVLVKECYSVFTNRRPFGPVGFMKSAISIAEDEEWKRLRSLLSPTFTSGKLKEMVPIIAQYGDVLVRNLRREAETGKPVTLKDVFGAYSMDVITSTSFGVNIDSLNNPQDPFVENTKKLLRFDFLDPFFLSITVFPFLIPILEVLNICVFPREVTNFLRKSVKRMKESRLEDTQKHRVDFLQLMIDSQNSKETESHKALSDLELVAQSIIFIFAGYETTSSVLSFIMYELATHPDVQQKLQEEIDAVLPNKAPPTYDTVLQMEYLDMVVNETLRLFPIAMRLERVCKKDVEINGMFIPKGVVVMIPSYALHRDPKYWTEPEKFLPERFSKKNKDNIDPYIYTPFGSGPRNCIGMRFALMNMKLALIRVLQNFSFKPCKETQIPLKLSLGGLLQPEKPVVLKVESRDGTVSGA
Protocol: Assessment of certain in vitro ADME (absorption, distribution, metabolism, and excretion) parameters for certain compounds of the invention was conducted by BioFocus (Saffron Walden, UK).

non-mutant kinases = format: binding; conditions: for number of individual kinase hits, S(1): non-mutant kinases with % Ctrl <1
Protocol: These assays may be conducted by DiscoverX (formerly Ambit; San Diego, Calif.). The percentage inhibition produced by incubation with a test compound may be calculated relative to the non-inhibited control.

[4] = Plasma pharmacokinetics in rats, single intravenous or oral administration; format: in vivo, rat (male Wistar); conditions: rats
Protocol: Studies were conducted by Sai Life Sciences (Hinjewadi, Pune, India) to investigate the plasma pharmacokinetics and total colon tissue distribution of compounds of the invention. In particular, pharmacokinetic studies were carried out in: • male C57BL/6 mice, following a single oral administration; and • male Wistar rats following a single intravenous or oral administration.

[5] = Table 7a, eyes of LPS-stimulated rats, 1 mg/mL
[6] = eyes of LPS-stimulated rats, 1 mg/mL
[7] = male, Wistar, rat, plasma, intravenous 0.25 mg/kg

IC50 (GSK 3α)	IC50 (Syk)	IC50 (p38 MAPKα (MAPK14))	IC50 (c-Src)	SMILES	% β-catenin induction ([3]; test compound 1 μg/mL)	% β-catenin induction ([3]; test compound 5 μg/mL)	% β-catenin induction ([3]; test compound 10 μg/mL)	further results
				C[C@@H]1C[C@H]2[C@@H]3CCC4=CC(=O)C=C[C@]4(C)[C@@]3(F)[C@@H](O)C[C@]2(C)[C@@]1(O)C(=O)CO [Dexamethasone]				IL-1β Anterior [1, 5]: 553.5 ± 155.7 pg/mL; IL-1β Posterior [1, 5]: 365.6 ± 178.2 pg/mL; IL-6 Anterior [1, 5]: 1000.7 ± 126.2 pg/mL; IL-6 Posterior [1, 5]: 1723.4 ± 224.1 pg/mL; MCP-1 Anterior [1, 5]: 156.3 ± 50.8 pg/mL; MCP-1 Posterior [1, 5]: 95.2 ± 32.5 pg/mL
9330 nM	85 nM	25 nM	19 nM	COCCOCCOCCOc1cc(Nc2cc(Oc3ccc(NC(=O)Nc4cc(C(C)(C)C)cc(C(N)=O)c4OC)c4ccccc34)ccn2)cc(OC)c1 [Example 34, 5-(tert-Butyl)-2-methoxy-3-(3-(4-((2-((3-methoxy-5-(2-(2-(2-methoxyethoxy)ethoxy)ethoxy)phenyl)amino)pyridin-4-yl)oxy)naphthalen-1-yl)ureido)benzamide]	1%	7%	−9%	inflammatory cell infiltrate in the reticular and laminar propria zones [2]: marked reduction; ulcer grade and epithelial repair compared to the vehicle control [2]: marked improvements; LP inflammation [2]: 2.6 ± 0.3; Ulcer grade [2]: 3.6 ± 0.2; activity in in vivo model of colonic inflammation (histopathology analysis) [2]: substantial activity
2430 nM	330 nM	140 nM	23 nM	COc1cc(Nc2cc(Oc3ccc(NC(=O)Nc4cc(C(C)(C)C)cc(NS(C)(=O)=O)c4OC)c4ccccc34)ccn2)cc(C(=O)NCCCN2CCOCC2)c1 [Example 66, 3-((4-((4-(3-(5-(tert-Butyl)-2-methoxy-3-(methysulfonamido)phenyl)ureido)naphthalen-1-yl)oxy)pyridin-2-yl)amino)-5-methoxy-N-(3-morpholinopropyl)benzamide]	0%	6%	3%	Cell counts [1, 6]: 28.0 ± 7.6; IL-1β Anterior tissue [1, 6]: 342.7 ± 145.3 pg/mL; IL-1β Posterior tissue [1, 6]: 209.9 ± 59.0 pg/mL; cytokine levels in both the anterior and posterior segments of the eyes [1]: significantly reduced
4330 nM	339 nM	56 nM	35 nM	COc1cc(Nc2cc(Oc3ccc(NC(=O)Nc4cc(C(C)(C)C)cc(NS(C)(=O)=O)c4OC)c4ccccc34)ccn2)cc(C(=O)NCCN2CCN(C)CC2)c1 [Example 79]	−4%	1%	5%	inflammatory cell infiltrate in the reticular and laminar propria zones [2]: marked reduction; ulcer grade and epithelial repair compared to the vehicle control [2]: marked improvements; LP inflammation [2]: 3.5 ± 0.5; Ulcer grade [2]: 3.4 ± 0.6; activity in in vivo model of colonic inflammation (histopathology analysis) [2]: substantial activity
2870 nM	1170 nM	271 nM	48 nM	COc1cc(Nc2nccc(Oc3ccc(NC(=O)Nc4cc(C(C)(C)C)cc(NS(C)(=O)=O)c4OC)c4ccccc34)n2)cc(S(=O)(=O)C2CC2)c1 [Example 5]	10%	27%	19%	IC50 (CYP3A4; CYP3A4, 0 min preincubation): > 15000 nM; IC50 (CYP3A4; CYP3A4, 30 min preincubation): > 15000 nM; inhibition at 15 µM (CYP3A4; CYP3A4, 0 min preincubation): 0%; inhibition at 15 µM (CYP3A4; CYP3A4, 30 min preincubation): 27%
				COCC(=O)Nc1cc(Oc2ccc(NC(=O)Nc3cc(C(C)(C)C)nn3-c3ccc(C)cc3)c3ccccc23)ccn1 [Reference Compound, N-(4-(4-(3-(3-tert-butyl-1-p-tolyl-1H-pyrazol-5-yl)ureido)naphthalen-1-yloxy)pyridin-2-yl)-2-methoxyacetamide, reference compound]				number of individual kinase hits, S(1) (non-mutant kinases; 50 nM): 7; number of individual kinase hits, S(10) (non-mutant kinases; 50 nM, non-mutant kinases with % Ctrl <10): 32; number of individual kinase hits, S(35) (non-mutant kinases; 50 nM, non-mutant kinases with % Ctrl <35): 67; number of individual kinase hits, S(1) (non-mutant kinases; 500 nM): 45
1650 nM	130 nM	79 nM	21 nM	CNC(=O)c1cc(C(C)(C)C)cc(NC(=O)Nc2ccc(Oc3ccnc(Nc4cc(CO)cc(OC)c4)c3)c3ccccc23)c1OC [84(h), 5-tert-Butyl-3-[[4-[[2-[3-(hydroxymethyl)-5-methoxyanilino]-4-pyridyl]oxy]-1-naphthyl]carbamoylamino]-2-methoxy-N-methyl-benzamide]	−1%	11%	10%	
3120 nM	76 nM	52 nM	10 nM	COc1cc(Nc2nccc(Oc3ccc(NC(=O)Nc4cc(C(C)(C)C)cc(NS(C)(=O)=O)c4OC)c4ccccc34)n2)cc(OCCOCCOCCN2CCOCC2)c1 [Example 18, N-(5-(tert-Butyl)-2-methoxy-3-(3-(4-((2-((3-methoxy-5-(2-(2-(2-mormholinoethoxy)ethoxy)-ethoxy)phenyl)amino)pyrimidin-4-yl)oxy)naphthalen-1-yl)ureido)phenyl)methanesulfonamide]	1%	9%	17%	

SMILES	IC50 (GSK 3α)	IC50 (Syk)	IC50 (p38 MAPKα (MAPK14))	IC50 (c-Src)	% β-catenin induction ([3]; test compound 1 μg/mL)	% β-catenin induction ([3]; test compound 5 μg/mL)	% β-catenin induction ([3]; test compound 10 μg/mL)	further results
CNC(=O)c1cc(C(C)(C)C)cc(NC(=O)Nc2ccc(Oc3ccnc(Nc4cc(OC)cc(OCCOCCOCCOC)c4)c3)c3ccccc23)c1OC [Example 29, 5-(tert-Butyl)-2-methoxy-3-(3-(4-((2-((3-methoxy-5-(2-(2-(2-methoxyethoxy)ethoxy)-ethoxy)phenyl)amino)pyridin-4-yl)oxy)naphthalen-1-yl)ureido)-N-methylbenzamide]	6320 nM	96 nM	26 nM	19 nM	4%	7%	−4%	Cell counts [1, 6]: 33.0 ± 6.7; IL-1β Anterior tissue [1, 6]: 441.3 ± 138.5 pg/mL; IL-1β Posterior tissue [1, 6]: 272.1 ± 93.8 pg/mL; cytokine levels in both the anterior and posterior segments of the eyes [1]: significantly reduced; AUC(0-inf) [4, 7]: 295 ng·h/mL; AUC(0-t) [4, 7]: 293 ng·h/mL; half-life [4, 7]: 42 min; C0 ([4]; male, Wistar, rat, plasma, intravenous 0.25 mg/kg in 5% DMSO-7.5% Solutol HS15-87.5% normal saline): 2500 ng/mL; Vd ([4]; male, Wistar, rat, plasma, intravenous 0.25 mg/kg, read-out: Vss): 0.3 L/kg; CI ([4]; intravenous 0.25 mg/kg): 14.2 mL/min/kg
